From ChEMBL document CHEMBL1153328, “5-Aminomethylbenzimidazoles as potent ITK antagonists” (Bioorg Med Chem Lett, 2009)
Values after ≈ are worked out from the molar mass of the structure shown.

System: not listed separately
Assay: AUC (0 to infinity) in Sprague-Dawley rat at 10 mg/kg, po
Format: ADME, organism-based
Parameters: time infinity, dose 10 mg/kg, route oral
Details: plasma

| Compound | AUC(0-inf) |
| --- | --- |
| C[C@H](NCc1ccc2c(c1)[nH]/c(=N\C(=O)c1ccc(-c3cn[nH]c3)s1)n2CC(C)(C)O)C(C)(C)C | 659 ng·h/mL |

System: not listed separately
Assay: AUC (0 to infinity) in Sprague-Dawley rat at 1 mg/kg, iv
Format: ADME, organism-based
Parameters: time infinity, dose 1 mg/kg, route intravenous
Details: plasma

| Compound | AUC(0-inf) |
| --- | --- |
| C[C@H](NCc1ccc2c(c1)[nH]/c(=N\C(=O)c1ccc(-c3cn[nH]c3)s1)n2CC(C)(C)O)C(C)(C)C | 314 ng·h/mL |

System: not listed separately
Assay: Terminal plasma concentration in BALB/c mouse at 15 mg/kg, po after 8 hrs
Format: ADME, organism-based
Parameters: dose 15 mg/kg, route oral
Details: read-out: Cp(T)

| Compound | concentration at 8 h |
| --- | --- |
| C[C@H](NCc1ccc2c(c1)[nH]/c(=N\C(=O)c1ccc(-c3cn[nH]c3)s1)n2CC(C)(C)O)C(C)(C)C | 1300 nM |

System: not listed separately
Assay: Solubility at pH 7
Format: physicochemical
Details: buffer

| Compound | solubility |
| --- | --- |
| Cc1ncc(-c2ccc(C(=O)Nc3nc4cc(N(C)C(=O)c5ccccc5)ccc4n3CC(C)(C)O)s2)o1 | 2 µg/mL (≈ 3.78 µM) |

Biological target: T1, Tyrosine-protein kinase ITK/TSK (Homo sapiens, UniProt Q08881)
T1 sequence (Q08881 whole entry): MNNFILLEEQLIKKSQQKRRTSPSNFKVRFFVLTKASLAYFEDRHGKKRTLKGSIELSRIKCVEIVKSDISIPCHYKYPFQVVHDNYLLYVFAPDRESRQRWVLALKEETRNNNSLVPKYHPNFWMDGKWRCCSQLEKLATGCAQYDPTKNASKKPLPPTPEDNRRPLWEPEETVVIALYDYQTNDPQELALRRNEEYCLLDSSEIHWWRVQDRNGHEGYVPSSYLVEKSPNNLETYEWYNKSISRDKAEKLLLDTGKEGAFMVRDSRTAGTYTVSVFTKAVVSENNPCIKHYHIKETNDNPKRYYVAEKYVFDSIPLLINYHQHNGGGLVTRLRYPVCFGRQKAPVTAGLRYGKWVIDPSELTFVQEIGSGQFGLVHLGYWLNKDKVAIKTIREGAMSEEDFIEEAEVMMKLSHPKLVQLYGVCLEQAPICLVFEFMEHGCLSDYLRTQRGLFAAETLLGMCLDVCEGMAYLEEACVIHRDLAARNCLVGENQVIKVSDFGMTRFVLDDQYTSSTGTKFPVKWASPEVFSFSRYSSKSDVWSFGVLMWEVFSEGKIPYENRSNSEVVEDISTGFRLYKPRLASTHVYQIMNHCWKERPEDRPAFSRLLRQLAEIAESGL
Assay: Antagonist activity at human ITK expressed in BTK deficient DT40 cells assessed as inhibition of B cell receptor-stimulated calcium influx
Format: functional, cell-based
Details: not given

| IC50 | Compound |
| --- | --- |
| 3 nM | C[C@@H](NCc1ccc2c(c1)nc(NC(=O)c1ccc(-c3cn[nH]c3)s1)n2CC(C)(C)O)C(C)(C)C |
| 13 nM | CC(C)(O)Cn1/c(=N/C(=O)c2ccc(-c3cn[nH]c3)s2)[nH]c2cc(CN3CCOCC3)ccc21 |
| 25 nM | CCC(C)NCc1ccc2c(c1)nc(NC(=O)c1ccc(-c3cn[nH]c3)s1)n2CC(C)(C)O (configuration not stated) |

More lines, now with the values behind:

| Compound | IC50 |
| --- | --- |
| CC1COCC(C)N1Cc1ccc2c(c1)[nH]/c(=N\C(=O)c1ccc(-c3cn[nH]c3)s1)n2CC(C)(C)O (configuration not stated) | 3 nM |
| C[C@H](NCc1ccc2c(c1)[nH]/c(=N\C(=O)c1ccc(-c3cn[nH]c3)s1)n2CC(C)(C)O)C(C)(C)C | 4 nM |
| Cc1ncc(-c2ccc(C(=O)Nc3nc4cc(N(C)C(=O)c5ccccc5)ccc4n3CC(C)(C)O)s2)o1 | 110 nM |

System: not listed separately
Assay: Plasma clearance in Sprague-Dawley rat at 1 mg/kg, iv
Format: ADME, organism-based
Parameters: dose 1 mg/kg, route intravenous
Details: not given

| Compound | clearance |
| --- | --- |
| C[C@H](NCc1ccc2c(c1)[nH]/c(=N\C(=O)c1ccc(-c3cn[nH]c3)s1)n2CC(C)(C)O)C(C)(C)C | 53.1 mL/min/kg |

System: not listed separately
Assay: Terminal plasma concentration in BALB/c mouse at 5 mg/kg, po after 8 hrs
Format: ADME, organism-based
Parameters: dose 5 mg/kg, route oral
Details: read-out: Cp(T)

| Compound | concentration at 8 h |
| --- | --- |
| C[C@H](NCc1ccc2c(c1)[nH]/c(=N\C(=O)c1ccc(-c3cn[nH]c3)s1)n2CC(C)(C)O)C(C)(C)C | 400 nM |

System: T-cell
Assay: Inhibition of anti-CD3 and anti-CD28 monoclonal antibody-stimulated IL2 secretion in human CD4+ T cells
Format: functional, cell-based
Details: not given

| IC50 | Compound |
| --- | --- |
| 50 nM | C[C@@H](NCc1ccc2c(c1)nc(NC(=O)c1ccc(-c3cn[nH]c3)s1)n2CC(C)(C)O)C(C)(C)C |
| 230 nM | CC(C)(O)Cn1/c(=N/C(=O)c2ccc(-c3cn[nH]c3)s2)[nH]c2cc(CN3CCOCC3)ccc21 |
| 23 nM | CCC(C)NCc1ccc2c(c1)nc(NC(=O)c1ccc(-c3cn[nH]c3)s1)n2CC(C)(C)O (configuration not stated) |

More lines, now with the values behind:

| Compound | IC50 |
| --- | --- |
| CC1COCC(C)N1Cc1ccc2c(c1)[nH]/c(=N\C(=O)c1ccc(-c3cn[nH]c3)s1)n2CC(C)(C)O (configuration not stated) | 46 nM |
| C[C@H](NCc1ccc2c(c1)[nH]/c(=N\C(=O)c1ccc(-c3cn[nH]c3)s1)n2CC(C)(C)O)C(C)(C)C | 20 nM |
| Cc1ncc(-c2ccc(C(=O)Nc3nc4cc(N(C)C(=O)c5ccccc5)ccc4n3CC(C)(C)O)s2)o1 | 440 nM |

Biological target: Insulin receptor (Homo sapiens, UniProt P06213)
Sequence (P06213 28-758 limits assumed): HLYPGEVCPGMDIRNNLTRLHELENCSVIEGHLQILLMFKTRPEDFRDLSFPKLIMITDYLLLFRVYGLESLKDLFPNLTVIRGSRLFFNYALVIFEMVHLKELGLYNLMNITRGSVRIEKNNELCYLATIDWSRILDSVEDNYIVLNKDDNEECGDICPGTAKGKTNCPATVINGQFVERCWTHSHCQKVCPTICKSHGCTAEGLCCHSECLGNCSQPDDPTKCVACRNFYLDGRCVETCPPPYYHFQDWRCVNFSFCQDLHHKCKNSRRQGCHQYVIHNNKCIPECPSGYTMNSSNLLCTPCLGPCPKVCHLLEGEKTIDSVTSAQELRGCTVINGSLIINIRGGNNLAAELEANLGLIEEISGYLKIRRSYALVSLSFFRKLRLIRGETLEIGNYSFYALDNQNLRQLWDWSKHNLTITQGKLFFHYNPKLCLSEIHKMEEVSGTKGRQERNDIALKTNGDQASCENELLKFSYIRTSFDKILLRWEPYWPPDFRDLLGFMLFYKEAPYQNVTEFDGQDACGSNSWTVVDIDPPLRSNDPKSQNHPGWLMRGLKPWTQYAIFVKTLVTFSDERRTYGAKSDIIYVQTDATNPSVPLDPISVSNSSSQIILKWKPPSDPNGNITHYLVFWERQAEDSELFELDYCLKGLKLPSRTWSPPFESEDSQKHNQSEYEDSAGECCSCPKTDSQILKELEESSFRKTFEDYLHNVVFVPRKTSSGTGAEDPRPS
Sequence (P06213 763-1382 limits assumed): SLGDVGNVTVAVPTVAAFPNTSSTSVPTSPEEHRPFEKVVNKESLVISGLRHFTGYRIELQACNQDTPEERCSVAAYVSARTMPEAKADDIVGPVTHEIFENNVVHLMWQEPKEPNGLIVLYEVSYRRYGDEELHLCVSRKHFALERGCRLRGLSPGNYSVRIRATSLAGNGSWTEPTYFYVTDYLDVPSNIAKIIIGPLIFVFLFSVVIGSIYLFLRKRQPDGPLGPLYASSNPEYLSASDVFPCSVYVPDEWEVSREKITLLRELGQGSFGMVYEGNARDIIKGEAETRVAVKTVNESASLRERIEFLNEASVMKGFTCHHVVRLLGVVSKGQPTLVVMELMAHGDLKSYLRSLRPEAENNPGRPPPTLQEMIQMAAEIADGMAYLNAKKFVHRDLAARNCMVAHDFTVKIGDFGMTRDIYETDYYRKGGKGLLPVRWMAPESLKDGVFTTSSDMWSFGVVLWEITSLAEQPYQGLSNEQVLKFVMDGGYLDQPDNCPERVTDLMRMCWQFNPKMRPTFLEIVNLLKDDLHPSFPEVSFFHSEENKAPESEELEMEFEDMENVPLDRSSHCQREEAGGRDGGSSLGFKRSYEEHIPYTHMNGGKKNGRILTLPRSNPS
Assay: Inhibition of IRK
Details: not given

| IC50 | Compound |
| --- | --- |
| 93 nM | C[C@@H](NCc1ccc2c(c1)nc(NC(=O)c1ccc(-c3cn[nH]c3)s1)n2CC(C)(C)O)C(C)(C)C |
| 320 nM | CC(C)(O)Cn1/c(=N/C(=O)c2ccc(-c3cn[nH]c3)s2)[nH]c2cc(CN3CCOCC3)ccc21 |
| 600 nM | CCC(C)NCc1ccc2c(c1)nc(NC(=O)c1ccc(-c3cn[nH]c3)s1)n2CC(C)(C)O (configuration not stated) |

Continued, molecule first:

| Compound | IC50 |
| --- | --- |
| CC1COCC(C)N1Cc1ccc2c(c1)[nH]/c(=N\C(=O)c1ccc(-c3cn[nH]c3)s1)n2CC(C)(C)O (configuration not stated) | 320 nM |
| C[C@H](NCc1ccc2c(c1)[nH]/c(=N\C(=O)c1ccc(-c3cn[nH]c3)s1)n2CC(C)(C)O)C(C)(C)C | 160 nM |
| Cc1ncc(-c2ccc(C(=O)Nc3nc4cc(N(C)C(=O)c5ccccc5)ccc4n3CC(C)(C)O)s2)o1 | 940 nM |

System: not listed separately
Assay: Cmax in Sprague-Dawley rat at 10 mg/kg, po
Format: ADME, organism-based
Parameters: dose 10 mg/kg, route oral
Details: in vivo

| Compound | Cmax |
| --- | --- |
| C[C@H](NCc1ccc2c(c1)[nH]/c(=N\C(=O)c1ccc(-c3cn[nH]c3)s1)n2CC(C)(C)O)C(C)(C)C | 92 ng/mL |

Biological target: T1, Tyrosine-protein kinase ITK/TSK
Assay: Inhibition of ITK in presence of 1 mM ATP
Details: not given

| IC50 | Compound |
| --- | --- |
| 20 nM | C[C@@H](NCc1ccc2c(c1)nc(NC(=O)c1ccc(-c3cn[nH]c3)s1)n2CC(C)(C)O)C(C)(C)C |
| 220 nM | CC(C)(O)Cn1/c(=N/C(=O)c2ccc(-c3cn[nH]c3)s2)[nH]c2cc(CN3CCOCC3)ccc21 |
| 390 nM | CCC(C)NCc1ccc2c(c1)nc(NC(=O)c1ccc(-c3cn[nH]c3)s1)n2CC(C)(C)O (configuration not stated) |

The remaining lines, values behind:

| Compound | IC50 |
| --- | --- |
| CC1COCC(C)N1Cc1ccc2c(c1)[nH]/c(=N\C(=O)c1ccc(-c3cn[nH]c3)s1)n2CC(C)(C)O (configuration not stated) | 98 nM |
| C[C@H](NCc1ccc2c(c1)[nH]/c(=N\C(=O)c1ccc(-c3cn[nH]c3)s1)n2CC(C)(C)O)C(C)(C)C | 13 nM |
| Cc1ncc(-c2ccc(C(=O)Nc3nc4cc(N(C)C(=O)c5ccccc5)ccc4n3CC(C)(C)O)s2)o1 | 200 nM |

System: Mus musculus
Assay: Inhibition of anti-CD3-stimulated IL4 production in po dosed BALB/c mouse administered 5 hrs before anti-CD3 challenge measured after 3 hrs
Format: functional, organism-based
Details: not given

| Compound | Activity |
| --- | --- |
| C[C@H](NCc1ccc2c(c1)[nH]/c(=N\C(=O)c1ccc(-c3cn[nH]c3)s1)n2CC(C)(C)O)C(C)(C)C | Dose-dependent effect |

System: not listed separately
Assay: Tmax in Sprague-Dawley rat at 10 mg/kg, po
Format: ADME, organism-based
Parameters: dose 10 mg/kg, route oral
Details: in vivo

| Compound | Tmax |
| --- | --- |
| C[C@H](NCc1ccc2c(c1)[nH]/c(=N\C(=O)c1ccc(-c3cn[nH]c3)s1)n2CC(C)(C)O)C(C)(C)C | 1.2 h |

System: not listed separately
Assay: Terminal plasma concentration in BALB/c mouse at 1.5 mg/kg, po after 8 hrs
Format: ADME, organism-based
Parameters: dose 1.5 mg/kg, route oral
Details: read-out: Cp(T)

| Compound | concentration at 8 h |
| --- | --- |
| C[C@H](NCc1ccc2c(c1)[nH]/c(=N\C(=O)c1ccc(-c3cn[nH]c3)s1)n2CC(C)(C)O)C(C)(C)C | 100 nM |

System: not listed separately
Assay: Oral bioavailability in Sprague-Dawley rat at 10 mg/kg
Format: ADME, organism-based
Details: in vivo

| Compound | bioavailability |
| --- | --- |
| C[C@H](NCc1ccc2c(c1)[nH]/c(=N\C(=O)c1ccc(-c3cn[nH]c3)s1)n2CC(C)(C)O)C(C)(C)C | 21% |

System: not listed separately
Assay: Terminal half life in Sprague-Dawley rat at 1 mg/kg, iv
Format: ADME, organism-based
Parameters: dose 1 mg/kg, route intravenous
Details: in vivo, read-out: beta t1/2 (converted)

| Compound | half-life |
| --- | --- |
| C[C@H](NCc1ccc2c(c1)[nH]/c(=N\C(=O)c1ccc(-c3cn[nH]c3)s1)n2CC(C)(C)O)C(C)(C)C | 2.5 h |

System: Mus musculus
Assay: Inhibition of anti-CD3-stimulated IL2 production in po dosed BALB/c mouse administered 5 hrs before anti-CD3 challenge measured after 3 hrs
Format: functional, organism-based
Details: not given

| Compound | Activity |
| --- | --- |
| C[C@H](NCc1ccc2c(c1)[nH]/c(=N\C(=O)c1ccc(-c3cn[nH]c3)s1)n2CC(C)(C)O)C(C)(C)C | Dose-dependent effect |

System: not listed separately
Assay: Volume of distribution at steady state in Sprague-Dawley rat at 1 mg/kg, iv
Format: ADME, organism-based
Parameters: dose 1 mg/kg, route intravenous
Details: in vivo, read-out: Vdss

| Compound | Vd |
| --- | --- |
| C[C@H](NCc1ccc2c(c1)[nH]/c(=N\C(=O)c1ccc(-c3cn[nH]c3)s1)n2CC(C)(C)O)C(C)(C)C | 11.6 L/kg |

Biological target: T1, Tyrosine-protein kinase ITK/TSK
Assay: Binding affinity to ITK by DELFIA-based molecular assay
Details: not given

| IC50 | Compound |
| --- | --- |
| 1 nM | C[C@@H](NCc1ccc2c(c1)nc(NC(=O)c1ccc(-c3cn[nH]c3)s1)n2CC(C)(C)O)C(C)(C)C |
| 2 nM | CC(C)(O)Cn1/c(=N/C(=O)c2ccc(-c3cn[nH]c3)s2)[nH]c2cc(CN3CCOCC3)ccc21 |
| 2 nM | CCC(C)NCc1ccc2c(c1)nc(NC(=O)c1ccc(-c3cn[nH]c3)s1)n2CC(C)(C)O (configuration not stated) |

The next lines start with the molecule.

| Compound | IC50 |
| --- | --- |
| CC1COCC(C)N1Cc1ccc2c(c1)[nH]/c(=N\C(=O)c1ccc(-c3cn[nH]c3)s1)n2CC(C)(C)O (configuration not stated) | 1 nM |
| C[C@H](NCc1ccc2c(c1)[nH]/c(=N\C(=O)c1ccc(-c3cn[nH]c3)s1)n2CC(C)(C)O)C(C)(C)C | 1 nM |
| Cc1ncc(-c2ccc(C(=O)Nc3nc4cc(N(C)C(=O)c5ccccc5)ccc4n3CC(C)(C)O)s2)o1 | 3 nM |

System: not listed separately
Assay: Protein binding in plasma by dialysis method
Format: ADME, cell-free
Details: read-out: PPB (converted)

| Compound | fraction unbound |
| --- | --- |
| Cc1ncc(-c2ccc(C(=O)Nc3nc4cc(N(C)C(=O)c5ccccc5)ccc4n3CC(C)(C)O)s2)o1 | 0.013 |

System: Blood
Assay: Inhibition of staphylococcal entertoxin B-stimulated IL2 secretion in human whole blood
Format: functional, tissue-based
Details: not given

| Compound | IC50 |
| --- | --- |
| C[C@H](NCc1ccc2c(c1)[nH]/c(=N\C(=O)c1ccc(-c3cn[nH]c3)s1)n2CC(C)(C)O)C(C)(C)C | 240 nM |
| Cc1ncc(-c2ccc(C(=O)Nc3nc4cc(N(C)C(=O)c5ccccc5)ccc4n3CC(C)(C)O)s2)o1 | 10000 nM |
